Results reported in patent publication US20240270821A1, “GIP/GLP1/GCG TRI-RECEPTOR AGONISTS AND USES THEREOF” (priority 2023, published 2024).
Read-outs that look alike come from different tables or passages of the source. Starred links: 1 amine or outer side, 2 acyl side, 3 side chain; linkers in the order of their positions; H or OH if unused. Non-standard residues stand in square brackets, D forms with d. Groups on a side chain read outwards from the residue. No end group written: not given here. *: point of attachment. C18 diacid = O=C(O)CCCCCCCCCCCCCCCCC(=O)*; γGlu = O=C(O)[C@H](CCC(=O)[*:2])N[*:1]; αMe4Pal = C[C@](N)(Cc1ccncc1)C(=O)O; αMeY = C[C@](N)(Cc1ccc(O)cc1)C(=O)O; 4Pal = N[C@@H](Cc1ccncc1)C(=O)O; αMeL = CC(C)C[C@](C)(N)C(=O)O; Orn = NCCC[C@H](N)C(=O)O; AEEA = NCCOCCOCC(=O)O; Aib = CC(C)(N)C(=O)O

Columns and labels:
Assay type in all cases: cell-based
hGIPR [1] = molecular target: T1, hGIPR (Homo sapiens, UniProt P48546); experiment: Functional cAMP activity in the presence of 1% HSA; conditions: read-out: cAMP Rel EC50, hGIPR
T1 sequence (P48546 22-466): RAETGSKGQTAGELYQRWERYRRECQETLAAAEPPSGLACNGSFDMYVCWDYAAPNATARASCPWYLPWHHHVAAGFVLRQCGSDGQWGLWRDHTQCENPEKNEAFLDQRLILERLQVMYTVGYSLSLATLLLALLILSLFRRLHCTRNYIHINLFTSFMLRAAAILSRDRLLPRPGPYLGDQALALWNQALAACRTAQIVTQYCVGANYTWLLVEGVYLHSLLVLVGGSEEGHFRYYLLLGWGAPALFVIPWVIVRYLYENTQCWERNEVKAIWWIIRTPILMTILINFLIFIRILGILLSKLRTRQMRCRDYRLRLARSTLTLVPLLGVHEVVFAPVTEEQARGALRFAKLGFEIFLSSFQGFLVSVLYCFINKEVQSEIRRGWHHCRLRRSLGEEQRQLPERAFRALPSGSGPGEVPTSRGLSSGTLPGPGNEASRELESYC

hGLP-1R [2] = molecular target: T2, hGLP-1R (Homo sapiens, UniProt P43220); experiment: Functional cAMP activity in the presence of 1% HSA; conditions: read-out: cAMP Rel EC50, hGLP-1R
human GcgR = human GcgR (Homo sapiens, UniProt P47871); experiment: Functional cAMP activity in the presence of 1% HSA; conditions: read-out: cAMP Rel EC50, hGcgR
hGIPR [3] = molecular target: T1, hGIPR; experiment: Functional cAMP activation in the presence of 0.1% casein (no HSA); conditions: in the presence of 0.1% casein (no HSA); geometric mean; read-out: Relative cAMP EC50, hGIPR;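 as to Relative cAMP EC50, hGIPR: intracellular cAMP rise after 30 min at 37 °C read by HTRF against a standard curve, scaled between buffer alone (0%) and top control ligand concentration (100%), four-parameter fit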;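 as to Relative cAMP EC50, hGLP-1R: intracellular cAMP rise after 30 min at 37 °C read by HTRF, normalized between buffer only (0%) and maximal control ligand (100%), four-parameter variable-slope fit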;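 as to Relative cAMP EC50, hGcgR: intracellular cAMP rise after 30 min at 37 °C, read by HTRF against a cAMP standard curve, scaled from buffer only (0%) to maximal control ligand response (100%)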
hGLP-1R [4] = molecular target: T2, hGLP-1R; experiment: as above; conditions: in the presence of 0.1% casein (no HSA); geometric mean; read-out: Relative cAMP EC50, hGLP-1R
hGcgR = hGcgR (Homo sapiens, UniProt P47871); experiment: as above; conditions: in the presence of 0.1% casein (no HSA); geometric mean; read-out: Relative cAMP EC50, hGcgR;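 also: intracellular cAMP rise after 30 min at 37 °C, read by HTRF against a cAMP standard curve, scaled from buffer only (0%) to maximal control ligand response (100%)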
[5] = HEK-293 clonal cell line, in the presence of 1% HSA, geometric mean of relative EC50

T2 sequence (P43220 24-463): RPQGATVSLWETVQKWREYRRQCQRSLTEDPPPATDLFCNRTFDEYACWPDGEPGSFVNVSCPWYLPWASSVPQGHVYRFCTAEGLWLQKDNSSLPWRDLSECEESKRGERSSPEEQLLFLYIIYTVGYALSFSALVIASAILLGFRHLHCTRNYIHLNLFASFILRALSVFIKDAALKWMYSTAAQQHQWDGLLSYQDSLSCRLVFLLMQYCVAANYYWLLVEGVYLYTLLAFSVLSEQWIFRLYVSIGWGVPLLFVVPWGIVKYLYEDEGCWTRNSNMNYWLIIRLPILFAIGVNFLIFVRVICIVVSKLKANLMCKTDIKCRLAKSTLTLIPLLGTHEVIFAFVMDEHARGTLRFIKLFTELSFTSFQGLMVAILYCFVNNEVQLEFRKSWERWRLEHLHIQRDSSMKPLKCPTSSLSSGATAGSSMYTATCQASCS
Sequence of human GcgR (P47871 26-477): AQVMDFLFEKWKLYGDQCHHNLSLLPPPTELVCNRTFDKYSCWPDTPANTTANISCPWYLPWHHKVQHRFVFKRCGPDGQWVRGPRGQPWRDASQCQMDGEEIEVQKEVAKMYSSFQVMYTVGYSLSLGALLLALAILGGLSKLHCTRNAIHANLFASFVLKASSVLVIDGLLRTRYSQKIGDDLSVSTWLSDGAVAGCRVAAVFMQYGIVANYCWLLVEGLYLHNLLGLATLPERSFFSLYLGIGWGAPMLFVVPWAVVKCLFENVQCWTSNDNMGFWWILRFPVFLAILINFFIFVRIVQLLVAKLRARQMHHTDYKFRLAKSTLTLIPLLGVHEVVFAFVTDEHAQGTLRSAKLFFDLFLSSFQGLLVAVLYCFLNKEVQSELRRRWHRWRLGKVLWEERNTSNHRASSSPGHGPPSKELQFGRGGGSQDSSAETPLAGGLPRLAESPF
Sequence of hGcgR (P47871 26-477): as above

Substance	EC50 (hGIPR [1])	EC50 (hGLP-1R [2])	EC50 (human GcgR)	EC50 (hGIPR [3])	EC50 (hGLP-1R [4])	EC50 (hGcgR)	EC50 (hGIPR [1]; [5])	EC50 (hGLP-1R [2]; [5])	EC50 (human GcgR; [5])
Y[Aib]QGTFTSD[4Pal]SQ[αMeL]LDKK([Glu-γGlu-C18 diacid])AQ[αMe4Pal]AFIEYLIAGGPSSGAPPPSGE-NH2 [Example 1086]	21.2 nM	496 nM	3140 nM	0.117 nM	1.23 nM	12 nM	–	–	–
Y[Aib]QGTFTSD[4Pal]SQ[αMeL]LDKK([dE-dE-γGlu-C18 diacid])AQ[αMe4Pal]AFIEYLIE[Aib]GPSSGAPPPSGSE-NH2 [Example 925]	23 nM	708 nM	2500 nM	0.147 nM	4.19 nM	8.19 nM	–	–	–
Y[Aib]QGTFTSD[4Pal]SQ[αMeL]LDKK([dE-γGlu-C18 diacid])AQ[αMe4Pal]AFIEYLIAGGPSSGAPPPSGEEE-NH2 [Example 1088]	15.6 nM	367 nM	1710 nM	0.182 nM	2.99 nM	14.8 nM	–	–	–
Y[Aib]QGTFTSD[4Pal]SQ[αMeL]LDKK([dE-γGlu-C18 diacid])AQ[αMe4Pal]AFIEYLIE[Aib]GPSSGAPPPSGSE-NH2 [Example 924]	15.7 nM	402 nM	910 nM	0.0798 nM	3.12 nM	6.05 nM	–	–	–
Y[Aib]QGTFTSD[4Pal]SQ[αMeL]LDKK([dE-γGlu-C18 diacid])AQ[αMe4Pal]AFIEYLIE[Aib]GPSSGAPPPSGSEE-NH2 [Example 928]	15.1 nM	604 nM	1090 nM	0.0883 nM	3.58 nM	6.85 nM	–	–	–
Y[Aib]QGTFTSD[4Pal]SQ[αMeL]LDKK([dE-γGlu-dE-C18 diacid])AQ[αMe4Pal]AFIEYLIE[Aib]GPSSGAPPPSGS-NH2 [Example 923]	18.5 nM	870 nM	1840 nM	0.123 nM	6.23 nM	9.1 nM	–	–	–
Y[Aib]QGTFTSD[4Pal]SQ[αMeL]LDKK([dE-γGlu-dE-C18 diacid])AQ[αMe4Pal]AFIEYLIE[Aib]GPSSGAPPPSGSEE-NH2 [Example 931]	20.8 nM	878 nM	2300 nM	0.256 nM	11.3 nM	12.2 nM	–	–	–
Y[Aib]QGTFTSD[4Pal]SQ[αMeL]LDKK([γGlu-dE-dE-C18 diacid])AQ[αMe4Pal]AFIEYLIE[Aib]GPSSGAPPPSGSE-NH2 [Example 926]	13.5 nM	600 nM	1380 nM	0.166 nM	7.71 nM	13.2 nM	–	–	–
Y[Aib]QGTFTSD[4Pal]SQ[αMeL]LDKK([γGlu-dE-dE-C18 diacid])AQ[αMe4Pal]AFIEYLIE[Aib]GPSSGAPPPSGSEE-NH2 [Example 930]	19.9 nM	824 nM	1700 nM	0.244 nM	11 nM	13 nM	–	–	–
Y[Aib]QGTFTSD[4Pal]SQ[αMeL]LDKK([γGlu-γGlu-C18 diacid])AQ[αMe4Pal]AFIEYLIE[Aib]GPSSGAPPPSGS-NH2 [Example 858]	13.1 nM	258 nM	678 nM	0.0995 nM	1.83 nM	3.44 nM	–	–	–
Y[Aib]QGTFTSD[4Pal]SQ[αMeL]LDKK([γGlu-γGlu-C18 diacid])AQ[αMe4Pal]AFIE[αMe4Pal]LIE[Aib]GPSSGAPPPSGEE-NH2 [Example 1121]	–	–	–	0.115 nM	5.23 nM	8.83 nM	4.55 nM	165 nM	566 nM
Y[Aib]QGTFTSD[4Pal]SQ[αMeL]LDKK([γGlu-γGlu-C18 diacid])AQ[αMe4Pal]AFIE[αMe4Pal]LIE[Aib]GPSSGAPPPSGSEE-NH2 [Example 1122]	–	–	–	0.109 nM	5.66 nM	10.3 nM	4.54 nM	177 nM	474 nM
Y[Aib]QGTFTSD[4Pal]SQ[αMeL]LDKK([γGlu-γGlu-C18 diacid])AQ[αMe4Pal]AFIE[αMe4Pal]LIE[Aib]GPSSGAPPPSGTE-NH2 [Example 1118]	5.45 nM	183 nM	802 nM	0.128 nM	5.42 nM	6.52 nM	–	–	–
Y[Aib]QGTFTSD[4Pal]SQ[αMeL]LD[Orn]K([AEEA-γGlu-C18 diacid])AQ[αMe4Pal]AFIE[αMeY]LLEGGPSSGAPPPSGS-NH2 [Example 932]	25 nM	249 nM	513 nM	0.188 nM	1.61 nM	2.67 nM	–	–	–
